Laboratory results: patent US10370369B2, “Acid addition salt of 3-aminoquinuclidine which does not exhibit deliquescence” (YUKI GOSEI KOGYO CO. LTD., priority 2015, dated 2019)

Assays:
Type in all cases: physicochemical
[1] = Deliquescence Test (Experimental Example 3, salts of (S)-3-aminoquinuclidine); details: about 0.5 g allowed to stand for 1 hour, 24 to 26° C., humidity of 75 to 78%, visual evaluation
Description: The acid addition salts (about 0.5 g) of (S)-3-aminoquinuclidine obtained in Examples 14 to 19, and Comparative Examples 18 to 19 were allowed to stand for 1 hour, under the conditions of 24 to 26° C., and a humidity of 75 to 78%, and a deliquescence was observed by a visual evaluation.

[2] = Deliquescence Test (Experimental Example 2, salts of (R)-3-aminoquinuclidine); details: about 0.5 g allowed to stand for 1 hour, 24 to 25° C., humidity of 74 to 76%, visual evaluation
Description: The acid addition salts (about 0.5 g) of (R)-3-aminoquinuclidine obtained in Examples 7 to 13, Referential Example 2, and Comparative Examples 10 to 17 were allowed to stand for 1 hour, under the conditions of 24 to 25° C. and a humidity of 74 to 76%, and a deliquescence was observed by a visual evaluation.

[3] = Deliquescence Test (Experimental Example 1, salts of racemic 3-aminoquinuclidine); details: about 0.5 g allowed to stand for 1 hour, 25 to 27° C., humidity of 76 to 82%, visual evaluation
Description: racemic 3-aminoquinuclidine.dihydrochloride of reagent, and the acid addition salts (about 0.5 g) of racemic 3-aminoquinuclidine obtained in Examples 1 to 6 and Comparative Examples 1 to 9 were allowed to stand for 1 hour, under the condition of 25 to 27° C., and a humidity of 76 to 82%, and a deliquescence was observed by a visual evaluation.

Row | SMILES | Deliquescence [2] | Deliquescence [3] | other results
1 | N[C@@H]1CN2CCC1CC2.O=C(O)c1ccc(C(=O)O)cc1 [Example 17, (S)-3-aminoquinuclidine.monoterephthalate] |  |  | Deliquescence [1]: Not deliquesce
2 | Br.Br.N[C@H]1CN2CCC1CC2 [Comparative Example 10, (R)-3-aminoquinuclidine-dihydrobromide] | Gradually |  | 
3 | N[C@H]1CN2CCC1CC2.O=[N+]([O-])O.O=[N+]([O-])O [Comparative Example 11, (R)-3-aminoquinuclidine.dinitrate] | Gradually |  | 
4 | N[C@H]1CN2CCC1CC2.O=C(O)C(=O)O [Example 11, (R)-3-aminoquinuclidine.monooxalate] | Not deliquesce |  | 
5 | CS(=O)(=O)O.NC1CN2CCC1CC2 (racemic) [Comparative Example 9, racemic 3-aminoquinuclidine.monomesylate] |  | Gradually | 
6 | CS(=O)(=O)O.N[C@H]1CN2CCC1CC2 [Comparative Example 17, (R)-3-aminoquinuclidine.monomesylate] | Gradually |  | 
7 | NC1CN2CCC1CC2 (racemic) [Example 1, racemic 3-aminoquinuclidine.sesquiphosphate] |  | Not deliquesce | 
8 | Cl.Cl.N[C@H]1CN2CCC1CC2 [Referential Example 2, (R)-3-aminoquinuclidine.dihydrochloride] | Immediately |  | 
9 | Cc1ccc(S(=O)(=O)O)cc1.N[C@H]1CN2CCC1CC2 [Example 12, (R)-3-aminoquinuclidine.mono-p-toluenesulfonate] | Not deliquesce |  | 
10 | N[C@@H]1CN2CCC1CC2.O=C(O)/C=C/C(=O)O [Example 16, (S)-3-aminoquinuclidine.monofumarate] |  |  | Deliquescence [1]: Not deliquesce
11 | Cl.Cl.NC1CN2CCC1CC2 (racemic) [Reagent, racemic 3-aminoquinuclidine.dihydrochloride] |  | Immediately | 
12 | CCC(=O)O.N[C@H]1CN2CCC1CC2 [Comparative Example 13, (R)-3-aminoquinuclidine.monopropionate] | Immediately |  | 
13 | Br.Br.NC1CN2CCC1CC2 (racemic) [Comparative Example 1, racemic 3-aminoquinuclidine-dihydrobromide] |  | Gradually | 
14 | N[C@@H]1CN2CCC1CC2.O=S(=O)(O)O [Example 15, (S)-3-aminoquinuclidine.monosulfate] |  |  | Deliquescence [1]: Not deliquesce
15 | NC1CN2CCC1CC2.O=C(O)C(=O)O (racemic) [Example 4, racemic 3-aminoquinuclidine.monooxalate] |  | Not deliquesce | 
16 | Cc1ccc(S(=O)(=O)O)cc1.N[C@@H]1CN2CCC1CC2 [Example 19, (S)-3-aminoquinuclidine.mono-p-toluenesulfonate] |  |  | Deliquescence [1]: Not deliquesce
17 | NC1CN2CCC1CC2.NC1CN2CCC1CC2.NC1CN2CCC1CC2.O=C(O)CC(O)(CC(=O)O)C(=O)O.O=C(O)CC(O)(CC(=O)O)C(=O)O (racemic) [Comparative Example 8, racemic 3-aminoquinuclidine.2/3 citrate] |  | Immediately | 
18 | NC1CN2CCC1CC2.O=C(O)c1ccc(C(=O)O)cc1 (racemic) [Example 3, racemic 3-aminoquinuclidine.monoterephthalate] |  | Not deliquesce | 
19 | N[C@@H]1CN2CCC1CC2.O=[N+]([O-])O.O=[N+]([O-])O [Comparative Example 18, (S)-3-aminoquinuclidine.dinitrate] |  |  | Deliquescence [1]: Gradually
20 | N[C@H]1CN2CCC1CC2.O=C(O)/C=C\C(=O)O [Comparative Example 15, (R)-3-aminoquinuclidine.monomaleate] | Gradually |  | 
21 | N[C@H]1CN2CCC1CC2.O=C(O)c1ccc(C(=O)O)cc1 [Example 10, (R)-3-aminoquinuclidine.monoterephthalate] | Not deliquesce |  | 

Row | SMILES | Deliquescence [2] | Deliquescence [3] | other results
22 | CC1(C)C2CCC1(CS(=O)(=O)O)C(=O)C2.N[C@H]1CN2CCC1CC2 [Example 13, (R)-3-aminoquinuclidine.mono-(−)-10-camphorsulfonate] | Not deliquesce |  | 
23 | N[C@H]1CN2CCC1CC2.N[C@H]1CN2CCC1CC2.O=P(O)(O)O.O=P(O)(O)O.O=P(O)(O)O [Example 7, (R)-3-aminoquinuclidine.sesquiphosphate] | Not deliquesce |  | 
24 | N[C@@H]1CN2CCC1CC2.O=C(O)C(=O)O [Example 18, (S)-3-aminoquinuclidine.monooxalate] |  |  | Deliquescence [1]: Not deliquesce
25 | CC(=O)O.CC(=O)O.NC1CN2CCC1CC2 (racemic) [Comparative Example 4, racemic 3-aminoquinuclidine.diacetate] |  | Immediately | 
26 | CC(=O)O.CC(=O)O.N[C@H]1CN2CCC1CC2 [Comparative Example 12, (R)-3-aminoquinuclidine.diacetate] | Immediately |  | 
27 | Cl.Cl.N[C@@H]1CN2CCC1CC2 [Referential Example 4, (S)-3-aminoquinuclidine.dihydrochloride] |  |  | Deliquescence [1]: Immediately
28 | CCC(=O)O.NC1CN2CCC1CC2 (racemic) [Comparative Example 5, racemic 3-aminoquinuclidine.monopropionate] |  | Immediately | 
29 | Cc1ccc(S(=O)(=O)O)cc1.NC1CN2CCC1CC2 (racemic) [Example 5, racemic 3-aminoquinuclidine.mono-p-toluenesulfonate] |  | Not deliquesce | 
30 | CC(=O)O.CC(=O)O.N[C@@H]1CN2CCC1CC2 [Comparative Example 19, (S)-3-aminoquinuclidine.diacetate] |  |  | Deliquescence [1]: Immediately
31 | N[C@H]1CN2CCC1CC2.O=S(=O)(O)O [Example 8, (R)-3-aminoquinuclidine.monosulfate] | Not deliquesce |  | 
32 | CC1(C)C2CCC1(CS(=O)(=O)O)C(=O)C2.NC1CN2CCC1CC2 (racemic) [Example 6, racemic 3-aminoquinuclidine.mono-(±)-10-camphorsulfonate] |  | Not deliquesce | 
33 | NC1CN2CCC1CC2.O=C(O)/C=C/C(=O)O (racemic) [Example 2, racemic 3-aminoquinuclidine.monofumarate] |  | Not deliquesce | 
34 | NC1CN2CCC1CC2.O=C(O)/C=C\C(=O)O (racemic) [Comparative Example 7, racemic 3-aminoquinuclidine.monomaleate] |  | Gradually | 
35 | N[C@H]1CN2CCC1CC2.N[C@H]1CN2CCC1CC2.N[C@H]1CN2CCC1CC2.O=C(O)CC(O)(CC(=O)O)C(=O)O.O=C(O)CC(O)(CC(=O)O)C(=O)O [Comparative Example 16, (R)-3-aminoquinuclidine.2/3citrate] | Immediately |  | 
36 | N[C@H]1CN2CCC1CC2.O=C(O)/C=C/C(=O)O [Example 9, (R)-3-aminoquinuclidine.monofumarate] | Not deliquesce |  | 
37 | N[C@@H]1CN2CCC1CC2.N[C@@H]1CN2CCC1CC2.O=P(O)(O)O.O=P(O)(O)O.O=P(O)(O)O [Example 14, (S)-3-aminoquinuclidine.sesquiphosphate] |  |  | Deliquescence [1]: Not deliquesce
38 | N[C@H]1CN2CCC1CC2.O=C(O)c1ccccc1.O=C(O)c1ccccc1 [Comparative Example 14, (R)-3-aminoquinuclidine.dibenzoate] | Immediately |  | 
39 | NC1CN2CCC1CC2.O=[N+]([O-])O.O=[N+]([O-])O (racemic) [Comparative Example 3, racemic 3-aminoquinuclidine.dinitrate] |  | Gradually | 
40 | NC1CN2CCC1CC2.O=S(=O)(O)O (racemic) [Comparative Example 2, racemic 3-aminoquinuclidine.monosulfate] |  | Gradually | 
41 | NC1CN2CCC1CC2.O=C(O)c1ccccc1.O=C(O)c1ccccc1 (racemic) [Comparative Example 6, racemic 3-aminoquinuclidine.dibenzoate] |  | Gradually | 
